Results published in patent US12552811B2, “Immunosuppressant, and preparation method therefor and use thereof” (Abbisko Therapeutics Co., Ltd., priority 2020, dated 2026).

Experiment: Jurkat reporter gene cellular assay
Format: cell-based
Settings: Homo sapiens; Jurkat/NF-κB-luc/PD1 + Raji-PD-L1 coculture, OKT3 1 μg/mL, 6 hrs, activation fold; read-out: Cell Activity EC50
Description: The effect of compounds of the examples of the present invention and positive compounds on the interaction between PD-1 and PD-L1 expressed on cell surfaces, and the related influence on T cell functions, were determined by a Jurkat reporter gene cellular assay.
Briefly, the reporter gene plasmid of NF-κB-luc and the plasmid of human PD-1 were transfected into Jurkat cells to establish a stably transfected cell line capable of stably expressing both PD-1 and NF-κB-Luc reporter genes; the expression level of PD-1 on the cell surface was confirmed by flow cytometry; and the expression of the reporter gene was confirmed via the response of the reporter gene stimulated by OKT-3 and Raiji cells.
In addition, the plasmid of human PD-L1 was transfected into Raji cells to obtain a cell line capable of stably expressing PD-L1. Jurkat/NF-κB-luc/PD1 cells and Raji-PD-L1 cells were then cocultured and stimulated with OKT-3. On this basis, the compounds were added, and the enhancement of the signal pathway of T cell activation by the inhibitory effect of the compounds on the interaction between PD-1 and PD-L1 was evaluated by readings of reporter gene responses. The specific experimental process was as follows: • 1) 30 μL of compound or antibody solution was added to each well of a white 96-well plate (coming, 3610) at different diluted concentrations, and 10 μL of OKT3 (Biolegend, 317326) was then added (the final concentration of OKT3: 1 μg/mL); • 2) 20 μL of Raji-PD-L1 cell suspension was added to each well with 5*10^4 cells for each well, and was incubated in an incubator for 20 min: • 3) 20 μL of Jurkat/NF-κb-luc/PD-1 cell suspension was added to each well with 5*10^4 cells for each well, and well mixed, and 6 hrs later, Bright-glo (Promega, E2620) was applied and plates were read on Envision; • 4) The reading of each well treated with the compound was compared with the reading of each well treated with DMSO to obtain the activation fold of the compound; • 5) EC50 values of compounds and positive compounds of the examples of the present invention were determined by non-linear regression analysis of activation folds at different compound concentrations.

Structure (SMILES) | EC50
C[C@@H](O)CN1CCc2cc(C(=O)Nc3cccc(-c4cccc(NC(=O)c5nc6c(n5C)CCN(CCC57CCC(C(=O)O)(CC5)C7)C6)c4Cl)c3Cl)ncc2C1 [Example 8, (R)-4-(2-(2-((2,2′-dichloro-3′-(7-(2-hydroxypropyl)-5,6,7,8-tetrahydro-2,7-naphthyridine-3-carboxamido)-[1,1′-biphenyl]-3-yl)carbamoyl)-1-methyl-1,4,6,7-tetrahydro-5H-imidazo[4,5-c]pyridin-5-yl)ethyl)bicyclo[2.2.1]heptane-1-carboxylic acid] | 59.8 nM
Cn1c(C(=O)Nc2cccc(-c3cccc(NC(=O)c4cc5c(cn4)CN(CCCO)CC5)c3Cl)c2Cl)nc2c1CCN(CCC13CCC(C(=O)O)(CC1)C3)C2 [Example 9, 4-(2-(2-((2,2′-dichloro-3′-(7-(3-hydroxypropyl)-5,6,7,8-tetrahydro-2,7-naphthyridine-3-carboxamido)-[1,1′-biphenyl]-3-yl)carbamoyl)-1-methyl-1,4,6,7-tetrahydro-5H-imidazo[4,5-c]pyridin-5-yl)ethyl) bicyclo[2.2.1]heptane-1-carboxylic acid] | 177 nM
CN(C)C(=O)CCCCN1CCc2cc(C(=O)Nc3cccc(-c4cccc(NC(=O)c5nc6c(n5C)CCN(CCC57CCC(C(=O)O)(CC5)C7)C6)c4Cl)c3Cl)ncc2C1 [Example 16, 4-(2-(2-((2,2′-dichloro-3′-(7-(5-(dimethylamino)-5-oxopentyl)-5,6,7,8-tetrahydro-2,7-naphthyridine-3-carboxamido)-[1,1′-biphenyl]-3-yl)carbamoyl)-1-methyl-1,4,6,7-tetrahydro-5H-imidazo[4,5-c]pyridin-5-yl)ethyl)bicyclo[2.2.1]heptane-1-carboxylic acid] | 83.5 nM
CC(C)N1CCc2cc(C(=O)Nc3cccc(-c4cccc(NC(=O)c5nc6c(n5C)CCN(CCC57CCC(C(=O)O)(CC5)C7)C6)c4Cl)c3Cl)ncc2C1C (stereo not shown) [Example 18, 4-(2-(2-((2,2′-dichloro-3′-(7-isopropyl-8-methyl-5,6,7,8-tetrahydro-2,7-naphthyridine-3-carboxamido)-[1,1′-biphenyl]-3-yl)carbamoyl)-1-methyl-1,4,6,7-tetrahydro-5H-imidazo[4,5-c]pyridin-5-yl)ethyl) bicyclo[2.2.1]heptane-1-carboxylic acid] | 90.7 nM
CC(C)N1CCc2cc(C(=O)Nc3cccc(-c4cccc(NC(=O)c5nc6c(n5C)CCN(CC57CCC(C(=O)O)(CC5)C7)C6)c4Cl)c3Cl)ncc2C1 [Example 19, 4-((2-((2,2′-dichloro-3′-(7-isopropyl-5,6,7,8-tetrahydro-2,7-naphthyridine-3-carboxamido)-[1,1′-biphenyl]-3-yl)carbamoyl)-1-methyl-1,4,6,7-tetrahydro-5H-imidazo[4,5-c]pyridin-5-yl)methyl)bicyclo[2.2.1] heptane-1-carboxylic acid] | 58.8 nM
CC(C)N1CCc2cc(C(=O)Nc3cccc(-c4cccc(NC(=O)c5nc6c(n5C)CCN(CC[C@H]5CC[C@H](C(=O)O)CC5)C6)c4Cl)c3Cl)ncc2C1 [Example 23, (1R,4R)-4-(2-(2-((2,2′-dichloro-3′-(7-isopropyl-5,6,7,8-tetrahydro-2,7-naphthyridine-3-carboxamido)-[1,1′-biphenyl]-3-yl)carbamoyl)-1-methyl-1,4,6,7-tetrahydro-5H-imidazo[4,5-c]pyridin-5-yl)ethyl) cyclohexane-1-carboxylic acid] | 60.7 nM
Cn1c(C(=O)Nc2cccc(-c3cccc(NC(=O)c4cc5c(cn4)CN(CC4(O)CC4)CC5)c3Cl)c2Cl)nc2c1CCN(CCC13CCC(C(=O)O)(CC1)C3)C2 [Example 62, 4-(2-(2-((2,2′-dichloro-3′-(7-((1-hydroxycyclopropyl)methyl)-5,6,7,8-tetrahydro-2,7-naphthyridine-3-carboxamido)-[1,1′-biphenyl]-3-yl)carbamoyl)-1-methyl-1,4,6,7-tetrahydro-5H-imidazo[4,5-c]pyridin-5-yl)ethyl)bicyclo[2.2.1]heptane-1-carboxylic acid] | 76.3 nM
Cn1c(C(=O)Nc2cccc(-c3cccc(NC(=O)c4cc5c(cn4)CN([C@H]4CC[C@H](O)CC4)CC5)c3Cl)c2Cl)nc2c1CCN(CCC13CCC(C(=O)O)(CC1)C3)C2 [Example 63, 4-(2-(2-((2,2′-dichloro-3′-(7-((1R,4R)-4-hydroxycyclohexyl)-5,6,7,8-tetrahydro-2,7-naphthyridine-3-carboxamido)-[1,1′-biphenyl]-3-yl)carbamoyl)-1-methyl-1,4,6,7-tetrahydro-5H-imidazo[4,5-c]pyridin-5-yl)ethyl)bicyclo[2.2.1]heptane-1-carboxylic acid] | 104 nM
CC(C)N1CCc2cc(C(=O)Nc3cccc(-c4cccc(NC(=O)c5cc6c(cn5)CN(CCC57CCC(C(=O)O)(CC5)C7)CC6)c4Cl)c3Cl)ncc2C1 [Example 67, 4-(2-(6-((2,2′-dichloro-3′-(7-isopropyl-5,6,7,8-tetrahydro-2,7-naphthyridine-3-carboxamido)-[1,1′-biphenyl]-3-yl)carbamoyl)-3,4-dihydro-2,7-naphthyridin-2(1H)-yl)ethyl)bicycio[2.2.1]heptane-1-carboxylic acid] | 1660 nM

Next, values leading:

EC50 | Structure (SMILES)
108 nM | Cn1c(C(=O)Nc2cccc(-c3cccc(NC(=O)c4cc5c(cn4)CN(C4CCC4)CC5)c3Cl)c2Cl)nc2c1CCN(CCC13CCC(C(=O)O)(CC1)C3)C2 [Example 5, 4-(2-(2-((2,2′-dichloro-3′-(7-cyclobutyl-5,6,7,8-tetrahydro-2,7-naphthyridine-3-carboxamido)-[1,1′-biphenyl]-3-yl)carbamoyl)-1-methyl-1,4,6,7-tetrahydro-5H-imidazo[4,5-c]pyridin-5-yl)ethyl)bicyclo [2.2.1]heptane-1-carboxylic acid]
114 nM | Cn1c(C(=O)Nc2cccc(-c3cccc(NC(=O)c4cc5c(cn4)CN([C@H]4CC[C@@H](O)CC4)CC5)c3Cl)c2Cl)nc2c1CCN(CCC13CCC(C(=O)O)(CC1)C3)C2 [Example 12, 4-(2-(2-((2,2′-dichloro-3′-(7-((1S,4S)-4-hydroxycyclohexyl)-5,6,7,8-tetrahydro-2,7-naphthyridine-3-carboxamido)-[1,1′-biphenyl]-3-yl)carbamoyl)-1-methyl-1,4,6,7-tetrahydro-5H-imidazo[4,5-c]pyridin-5-yl)ethyl)bicyclo[2.2.1]heptane-1-carboxylic acid]
78.9 nM | Cn1c(C(=O)Nc2cccc(-c3cccc(NC(=O)c4cc5c(cn4)CN(CCC(C)(C)O)CC5)c3Cl)c2Cl)nc2c1CCN(CCC13CCC(C(=O)O)(CC1)C3)C2 [Example 13, 4-(2-(2-((2,2′-dichloro-3′-(7-(3-hydroxy-3-methylbutyl)-5,6,7,8-tetrahydro-2,7-naphthyridine-3-carboxamido)-[1,1′-biphenyl]-3-yl)carbamoyl)-1-methyl-1,4,6,7-tetrahydro-5H-imidazo[4,5-c]pyridin-5-yl)ethyl)bicyclo[2.2.1]heptane-1-carboxylic acid]
83.2 nM | Cn1c(C(=O)Nc2cccc(-c3cccc(NC(=O)c4cc5c(cn4)CN([C@H]4CCC[C@@H]4O)CC5)c3Cl)c2Cl)nc2c1CCN(CCC13CCC(C(=O)O)(CC1)C3)C2 [Example 61, 4-(2-(2-((2,2′-dichloro-3′-(7-((1S,2S)-2-hydroxycyclopentyl)-5,6,7,8-tetrahydro-2,7-naphthyridine-3-carboxamido)-[1,1′-biphenyl]-3-yl)carbamoyl)-1-methyl-1,4,6,7-tetrahydro-5H-imidazo[4,5-c]pyridin-5-yl)ethyl)bicyclo[2.2.1]heptane-1-carboxylic acid]
155 nM | Cn1c(C(=O)Nc2cccc(-c3cccc(NC(=O)c4cc5c(cn4)CN(C4CCCC4)CC5)c3Cl)c2Cl)nc2c1CCN(CCC13CCC(C(=O)O)(CC1)C3)C2 [Example 64, 4-(2-(2-((2,2′-dichloro-3′-(7-cyclopentyl-5,6,7,8-tetrahydro-2,7-naphthyridine-3-carboxamido)-[1,1′-biphenyl]-3-yl)carbamoyl)-1-methyl-1,4,6,7-tetrahydro-5H-imidazo[4,5-c]pyridin-5-yl)ethyl)bicyclo [2.2.1]heptane-1-carboxylic acid]
122 nM | Cn1c(C(=O)Nc2cccc(-c3cccc(NC(=O)c4cc5c(cn4)CN(C4CCC(C)(C(=O)O)CC4)CC5)c3Cl)c2Cl)nc2c1CCN(CCC13CCC(C(=O)O)(CC1)C3)C2 (stereo not shown) [Example 65, 4-(2-(2-((3′-(7-(4-carboxy-4-methylcyclohexyl)-5,6,7,8-tetrahydro-2,7-naphthyridine-3-carboxamido)-2,2′-dichloro-[1,1′-biphenyl]-3-yl)carbamoyl)-1-methyl-1,4,6,7-tetrahydro-5H-imidazo[4,5-c]pyridin-5-yl)ethyl)bicyclo[2.2.1]heptane-1-carboxylic acid]
> 10000 nM | CC(C)N1CCc2cc(C(=O)Nc3cccc(-c4cccc(NC(=O)c5cc6c(cn5)CN(C(C)C)CC6)c4Cl)c3Cl)ncc2C1 [Example 66]
